Experimental data from patent publication US9707244B2, “Compositions and methods for treating conditions that affect epidermis” (Gencia Corporation, priority 2013, dated 2017).
“Also recorded” adds a separate entry of the source.

Legend:
[1] = test system: C57BL/6J mice; assay: Forced treadmill endurance test; type: in vivo; conditions: 10, 20, 30 mg/kg p.o. once daily for 30 days
Procedure: Group Setting: C57BL/6J mice were randomly assigned into five groups with different treatment started with balanced full-paw and fore-paw grip strength. Seventy five female mice were dosed at 4 PM for 30 consecutive days (qd). • 1. Vehicle (p.o. via oral gavage once daily for 30 days, n=15) • 2. Creatine (300 mg/kg, p.o. via oral gavage once daily for 30 days, n=15) • 3. Mitocreatine (10 mg/kg, p.o. via oral gavage once daily for 30 days, n=15) • 4. Mitocreatine (20 mg/kg, p.o. via oral gavage once daily for 30 days, n=15) • 5. Mitocreatine (30 mg/kg, p.o. via oral gavage once daily for 30 days, n=15). 75 mice (group 1-5) were tested on the treadmill with a previously optimized protocol as described below. The mice were habituized to the treadmill at two separate occasions, with a habituation protocol. Mice were allowed to acclimate to the testing room for at least 30 min before tested. Mice were initially placed on a treadmill running at 5 m/min for 2 minutes. The treadmill belt was set horizontally. The treadmill speed was then increased to 20 m/min in […] at steps of 5 m/min in every 10 sec with the shocking grid set at 0.2 mA. Mice were allowed to run for 20 minutes. […] The total running time until exhaustion was recorded. […] Data were expressed as Mean±S.E.M. and analyzed with one-way ANOVA followed by Bonferroni test compared to vehicle group, *P<0.05, **P<0.01 (FIG. 32).

[2] = test system: AG11073 untransformed human skin fibroblasts from a person; assay: Cellular senescence assay (SA-β-Gal fluorometric), aged fibroblasts; type: cell-based; conditions: 5 nM to 200 nM, p<0.01 for 5-100 nM, p<0.05 for 200 nM
Description: (§1) Senescent cells show common biochemical markers such as expression of an acidic senescence-associated β-galactosidase (SA-β-Gal) activity. While senescence has been characterized primarily in cultured cells, there is also evidence that it occurs in vivo. Cells expressing markers of senescence such as SA-β-Gal have been identified in normal tissues. To determine whether modified Mitocreatine analogues may influence the scenesence in aged fibroblasts, a 96-well Cellular Senescence Assay (SA-β-Gal Fluorometric Format) Cat # CBA-231 Cell Biolabs, Inc. was employed and buffers referenced were supplied by the manufacturer and in some cases freshly prepared prior to usage according to the manufacturer's instructions.
(§2) The cells utilized were Human Skin Fibroblast acquired from Coriell Cell Repository. The cell line AG11073 is untransformed human skin fibroblasts from a person. The primary culture was initiated from explants of a 2 mm-punch biopsy. The cell line AG16409 was untransformed human skin fibroblasts from a person.
(§3) Cells were grown in a 96 well plate. […]
(§4) 50 μL, of the reaction mixture was removed to a 96-well plate suitable for fluorescence measurement. The reaction was stopped by adding 200 μL of Stop solution and fluorescence was measured with a fluorescence plate reader (PHERA Star FS from BMG Labtech) at 360 nm (Excitation)/465 nm (Emission).

[3] = test system: AG16409 untransformed human skin fibroblasts from a person; assay: Cellular senescence assay (SA-β-Gal fluorometric), young fibroblasts; type: cell-based; conditions: increasing concentration
Description: as §1, §2, §3, §4

[4] = test system: AG11073 senescent fibroblasts; assay: Intracellular collagen type I immunolabeling and image analysis; type: cell-based, human
Procedure: The cell line AG11073 senescent fibroblasts, at passage 20, were plated onto a multi-chambered glass slide. Dulbecco's Modified Eagle Medium (DMEM) supplemented with the appropriate serum and antibiotics and either containing vehicle or 25 nM of Mitocreatine was added to each chamber. Cells were treated once daily with fresh media containing either vehicle or 25 nM mitocreatine for seven days. At the completion of the treatment period, the cells were washed with warm PBS and fixed with ice cold acetone. The chambers were removed and the slide immunoprobed with an anti-collagen type I antibody (ab292, Abcam). An Alexa-488 secondary antibody was used for detection and DAPI used to stain nuclei.
The cells utilized were human skin fibroblast acquired from Coriell Cell Repository. The cell line AG11073 is untransformed human skin fibroblasts from a person. The primary culture was initiated from explants of a 2 mm-punch biopsy. The cell line AG16409 is untransformed human skin fibroblasts from a person. Aged senescent fibroblasts (Coriell AG11073) were cultured for 7 days with either vehicle or 25 nM mitocreatine. Cells were probed with anti-collagen type I antibody (green) and DAPI (blue) for nuclei to assess changes in collagen type I expression.
Cell area and mean pixel intensity of the green fluorescence was acquired using Image J software. Image analysis supports an increase in cell area as well as an increase in intracellular collagen type I.
Image data from the immunolabeling of collage type I study was also used to quantify the amount of collagen immunolabeling in the AG11073 senescent fibroblast treated with 25 nM Mitocreatine in vehicle for seven days.

[5] = test system: Human hepatocellular liver carcinoma cell line HepG2; assay: Survival of HepG2 cells treated with chemotherapeutic agents (DAPI fluorescence); type: cell-based; conditions: Cetuximab, Gemcitabine or Temozolomide; 48 hours
Procedure: Fibroblasts were incubated with increasing amounts of Mitocreatine and certain anti-neoplastic agents, such as Cetuximab, Gemcitabine and Temozolomide. After incubation, cells were washed and the number of adherent (i.e. surviving) cells was assessed by DAPI fluorescence, which was measured utilizing a plate reader (PHERA Star FS from BMG Labtech). For these experiments two kinds of cells were used. Either the Human hepatocellular liver carcinoma cell line HepG2, or the BJ human fibroblast cells, which are established from normal human foreskin. […] Mitocreatine and the antineoplastic agent were added simultaneously.

For `CN(CC(=O)NCCC[P+](c1ccccc1)(c1ccccc1)c1ccccc1)C(=N)N.Cl.[Cl-]` [Mitocreatine, N^2-[ammonio(imino)methyl]-N^2-methyl-N-[3-(triphenylphosphonio)propyl] glycinamide dichloride], the “endurance (total running time)” value [1] was “Increases Endurance”, the “β-galactosidase expression/activity (senescence marker)” value [2] was “statistically significant decrease; also recorded: retards senescence” and the “β-galactosidase expression/activity (senescence marker)” value [3] was “this decrease failed to reach statistical significance; also recorded: statistically insignificant decrease”. The “induction in collagen type I levels” value ([4]; 25 nM for seven days, fluorescent intensity per area unit normalized to untreated cells) was 7 fold, the “intracellular collagen type I” value ([4]; 25 nM once daily for seven days) was “significant increase in intracellular collagen; also recorded: significant increase in collagen type I expression” and the “cell numbers / cell proliferation” value ([4]; 25 nM once daily for seven days, senescent cells) was “significant increase in cell numbers; also recorded: induced cell proliferation”. For the same compound, the “survival of HepG2 cells” value [5] was “not improve the survival”.
